Source: patent US9481654B2, “Compositions and methods for inhibition of the JAK pathway” (Rigel Pharmaceuticals, Inc., priority 2006, dated 2016)
Where a name gives a salt, the structure may show the parent alone.

System: IL-4 stimulated CD23 upregulation in human Ramos B cells (JAK-1/JAK-3, Stat-6)
Assay: Assay for Ramos B-Cell Line Stimulated with IL-4 (CD23 upregulation, FACS)
Type: cell-based
Settings: Table III Example 3
From the text: One means of assaying for such inhibition is detection of the effect of the 2,4-pyrimidinediamine compounds on the upregulation of downstream gene products. In the Ramos/IL4 assay, B-cells are stimulated with the cytokine Interleukin-4 (IL-4) leading to the activation of the JAK/Stat pathway through phosphorylation of the JAK family kinases, JAK1 and JAK3, which in turn phosphorylate and activate the transcription factor Stat-6. […] To study the effect of inhibitors (e.g., the 2,4-substituted pyrimindinediamine compounds described herein) on the JAK1 and JAK3 kinases, human Ramos B cells are stimulated with human IL-4. 20 to 24 hours post stimulation, cells are stained for upregulation of CD23 and analyzed using flow cytometry (FACS).
B-cells stimulated with cytokine Interleukin-4 (IL-4) activate the JAK/Stat pathway through phosphorylation of the JAK family kinases, JAK-1 and JAK-3, which in turn phosphorylate and activate the transcription factor Stat-6. […] To study the effect of inhibitors on the JAK family kinases, human Ramos B cells are stimulated with human IL-4.
Cells were maintained at a density of 3.5×10^5. The day before the experiment, Ramos B-cells were diluted to 3.5×10^5 cells/mL to ensure that they were in a logarithmic growth phase.
Cells were spun down and suspended in RPMI with 5% serum. 5×10^4 cells were used per point in a 96-well tissue culture plate. Cells were pre-incubated with compound or DMSO (Sigma-Aldrich, St. Louis, Mo., Cat No. D2650) vehicle control for 1 hour in a 37° C. incubator. Cells were then stimulated with IL-4 (Peprotech Inc., Rocky Hill, N.J., Cat No. 200-04) for a final concentration of 50 units/mL for 20-24 hours. […] Detection was performed using a BD LSR I System Flow Cytometer, purchased from Becton Dickinson Biosciences of San Jose, Calif.

Compound	IC50 [nM]
NS(=O)(=O)c1cccc(Nc2ncc(F)c(Nc3ccc4c(c3)CN(S(=O)(=O)C3CC3)C4)n2)c1 [II-5, N2-(3-Aminosulfonyl-phenyl)-N4-[(2-cyclopropylsulfonyl)-isoindolin-5-yl]-5-fluoro-2,4-pyrimidinediamine]	698
Cc1cnc(Nc2cccc(S(=O)(=O)NC(=O)[C@@H](NC(=O)OCc3ccccc3)C(C)C)c2)nc1Nc1cccc(CNS(=O)(=O)C2CC2)c1 [Compound I-144, N2-[3-N-(Cbz-L-Val)aminosulfonyl]phenyl-N4-(3-cyclopropylsulfonylaminomethyl)phenyl-5-methyl-2,4-pyrimidinediamine]	7720
CCC(=O)NS(=O)(=O)c1cc(Nc2ncc(F)c(Nc3ccc(CNS(=O)(=O)C4CC4)cc3)n2)ccc1C [Compound I-59, N4-(4-cyclopropylsulfonylaminomethyl)phenyl-5-fluoro-N2-(4-methyl-3-propionylaminosulfonyl)phenyl-2,4-pyrimidinediamine]	6500
Cc1ccc(Nc2ncc(F)c(Nc3ccc4c(c3)CN(S(=O)(=O)C3CC3)C4)n2)cc1S(N)(=O)=O [II-4, N2-(3-Aminosulfonyl-4-methylphenyl)-N4-[(2-cyclopropylsulfonyl)-isoindolin-5-yl]-5-fluoro-2,4-pyrimidinediamine]	720
Cc1cnc(Nc2cccc(S(=O)(=O)N[C@H](C(=O)O)C(C)C)c2)nc1Nc1cccc(CNS(=O)(=O)C2CC2)c1 [Compound I-138, N2-[3-N-(L-Val)aminosulfonyl]phenyl-N4-(3-cyclopropylsulfonylaminomethyl)phenyl-5-methyl-2,4-pyrimidinediamine]	2380
Cc1cnc(Nc2cccc(S(=O)(=O)NC(=O)[C@@H](N)Cc3ccccc3)c2)nc1Nc1cccc(CNS(=O)(=O)C2CC2)c1 [Compound I-132, N2-[3-N-(L-Phe)aminosulfonyl]phenyl-N4-(3-cyclopropylsulfonylaminomethyl)phenyl-5-methyl-2,4-pyrimidinediamine hydrogen chloride salt]	594
NS(=O)(=O)c1ccc(Nc2ncc(F)c(Nc3ccc4c(c3)CN(S(=O)(=O)C3CC3)C4)n2)cc1 [II-6, N2-(4-Aminosulfonyl-phenyl)-N4-[(2-cyclopropylsulfonyl)-isoindolin-5-yl]-5-fluoro-2,4-pyrimidinediamine]	640
CCC(=O)NS(=O)(=O)c1cccc(Nc2ncc(C)c(Nc3cccc(CN(C(=O)CC)S(=O)(=O)C4CC4)c3)n2)c1 [Compound I-93, N4-[3-(N-cyclopropylsulfonyl-N-propionyl)aminomethyl]phenyl-5-methyl-N2-(3-propionylaminosulfonyl)phenyl-2,4-pyrimidinediamine]	2810
CCCC(=O)NS(=O)(=O)c1ccc(Nc2ncc(C)c(Nc3ccc(CN(C(=O)CCC)S(=O)(=O)C4CC4)cc3)n2)cc1 [Compound I-204, N2-(4-butyrylaminosulfonyl)phenyl-N4-[4-(N-butyryl-N-cyclopropylsulfonyl)aminomethyl]phenyl-5-methyl-2,4-pyrimidinediamine]	1040
Cc1cnc(Nc2cccc(S(=O)(=O)NC(=O)[C@@H](N)Cc3ccccc3)c2)nc1Nc1cccc(CNS(=O)(=O)C2CC2)c1 [Compound I-134, N2-[3-N-(L-Phe)aminosulfonyl]phenyl-N4-(3-cyclopropylsulfonylaminomethyl)phenyl-5-methyl-2,4-pyrimidinediamine]	751
N4-[4-(N-cyclopropylsulfonyl-N-propionyl)aminomethyl]phenyl-5-methyl-N2-(4-propionylaminosulfonyl)phenyl-2,4-pyrimidinediamine sodium salt [Compound I-78]	1080
Cc1cnc(Nc2cccc(S(=O)(=O)Nc3cccnc3)c2)nc1Nc1ccc(CNS(=O)(=O)C2CC2)cc1 [Compound I-174, N4-(4-cyclopropylsulfonylaminomethyl)phenyl-5-methyl-N2-[3-(3-pyridyl)aminosulfonyl]phenyl-2,4-pyrimidinediamine]	1120
CCCCC(=O)NS(=O)(=O)c1cccc(Nc2ncc(C)c(Nc3cccc(CN(C(=O)CCCC)S(=O)(=O)C4CC4)c3)n2)c1 [Compound I-220, N4-[3-(N-cyclopropylsulfonyl-N-valeryl)aminomethyl]phenyl-5-methyl-N2-(3-valerylaminosulfonyl)phenyl-2,4-pyrimidinediamine]	2020
CCOC(=O)N(CC)S(=O)(=O)c1cccc(Nc2ncc(C)c(Nc3cccc(CNS(=O)(=O)C4CC4)c3)n2)c1 [Compound I-130, N4-(3-cyclopropylsulfonylaminomethyl)phenyl-N2-[3-(N-ethoxycarbonyl-N-ethyl)aminosulfonyl]phenyl-5-methyl-2,4-pyrimidinediamine]	544
CCC(=O)NS(=O)(=O)c1cccc(Nc2ncc(C)c(Nc3cccc(CNS(=O)(=O)C4CC4)c3)n2)c1 [Compound I-136, N4-(3-cyclopropylsulfonylaminomethyl)phenyl-5-methyl-N2-(3-propionylaminosulfonyl)phenyl-2,4-pyrimidinediamine]	1630
CCC(=O)NS(=O)(=O)c1ccc(Nc2ncc(C)c(Nc3ccc(CN(C(=O)CC)S(=O)(=O)CC)cc3)n2)cc1 [Compound I-91, N4-[4-(N-ethylsulfonyl-N-propionyl)aminomethyl]phenyl-5-methyl-N2-(4-propionylaminosulfonyl)phenyl-2,4-pyrimidinediamine]	1290
Cc1cnc(Nc2ccc(S(=O)(=O)NC(=O)C(C)C)cc2)nc1Nc1ccc(CN(C(=O)C(C)C)S(=O)(=O)C2CC2)cc1 [Compound I-199, N4-[4-(N-cyclopropylsulfonyl-N-isobutyryl)aminomethyl]phenyl-N2-(4-isobutyrylaminosulfonyl)phenyl-5-methyl-2,4-pyrimidinediamine]	1270
Cc1cnc(Nc2cccc(S(=O)(=O)NC(=O)C3(NC(=O)OC(C)(C)C)CCCC3)c2)nc1Nc1cccc(CNS(=O)(=O)C2CC2)c1 [Compound I-148, N2-[3-N-(Boc-cycloleucine)aminosulfonyl]phenyl-N4-(3-cyclopropylsulfonylaminomethyl)phenyl-5-methyl-2,4-pyrimidinediamine]	16200

Same assay, conditions: Table III Example 3, sodium salt

Compound	IC50 [nM]
CCC(=O)NS(=O)(=O)c1cc(Nc2ncc(F)c(Nc3ccc(CN(C(=O)CC)S(=O)(=O)C4CC4)cc3)n2)ccc1C [Compound I-64, N4-[4-(N-cyclopropylsulfonyl-N-propionyl)aminomethyl]phenyl-5-fluoro-N2-(4-methyl-3-propionylaminosulfonyl)phenyl-2,4-pyrimidinediamine sodium salt]	4270
CCCC(=O)NS(=O)(=O)c1cccc(Nc2ncc(C)c(Nc3cccc(CN(C(=O)CCC)S(=O)(=O)C4CC4)c3)n2)c1 [Compound I-205, N2-(3-butyrylaminosulfonyl)phenyl-N4-[3-(N-butyryl-N-cyclopropylsulfonyl)aminomethyl]phenyl-5-methyl-2,4-pyrimidinediamine sodium salt]	3440
CC(=O)NS(=O)(=O)c1cccc(Nc2ncc(C)c(Nc3cccc(CN(C(C)=O)S(=O)(=O)C4CC4)c3)n2)c1 [Compound I-196, N2-(3-acetamidosulfonyl)phenyl-N4-[3-(N-acetyl-N-cyclopropylsulfonyl)aminomethyl]phenyl-5-methyl-2,4-pyrimidinediamine sodium salt]	2050
CCC(=O)NS(=O)(=O)c1cccc(Nc2ncc(C)c(Nc3cccc(CN(C(=O)CC)S(=O)(=O)C4CC4)c3)n2)c1 [Compound I-94, N4-[3-(N-cyclopropylsulfonyl-N-propionyl)aminomethyl]phenyl-5-methyl-N2-(3-propionylaminosulfonyl)phenyl-2,4-pyrimidinediamine sodium salt]	2500
CCCCCC(=O)NS(=O)(=O)c1cccc(Nc2ncc(C)c(Nc3cccc(CN(C(=O)CCCCC)S(=O)(=O)C4CC4)c3)n2)c1 [Compound I-219, N4-[3-(N-cyclopropylsulfonyl-N-hexanoyl)aminomethyl]phenyl-N2-(3-hexanoylaminosulfonyl)phenyl-5-methyl-2,4-pyrimidinediamine sodium salt]	2600
Cc1cnc(Nc2cccc(S(=O)(=O)NC(=O)C(C)C)c2)nc1Nc1cccc(CN(C(=O)C(C)C)S(=O)(=O)C2CC2)c1 [Compound I-200, N4-[3-(N-cyclopropylsulfonyl-N-isobutyryl)aminomethyl]phenyl-N2-(3-isobutyrylaminosulfonyl)phenyl-5-methyl-2,4-pyrimidinediamine sodium salt]	2310
Cc1cnc(Nc2cccc(S(=O)(=O)NC(=O)[C@H](Cc3ccccc3)NC(=O)OCc3ccccc3)c2)nc1Nc1cccc(CNS(=O)(=O)C2CC2)c1 [Compound I-135, N2-[3-N-(Cbz-L-Phe)aminosulfonyl]phenyl-N4-(3-cyclopropylsulfonylaminomethyl)phenyl-5-methyl-2,4-pyrimidinediamine sodium salt]	1000
CCC(=O)NS(=O)(=O)c1ccc(Nc2ncc(C)c(Nc3ccc(CN(C(=O)CC)S(=O)(=O)CC)cc3)n2)cc1 [Compound I-92, N4-[4-(N-ethylsulfonyl-N-propionyl)aminomethyl]phenyl-5-methyl-N2-(4-propionylaminosulfonyl)phenyl-2,4-pyrimidinediamine sodium salt]	960
